Data from patent US10780090B2, “Heteroaryl compounds useful as inhibitors of SUMO activating enzyme” (Millennium Pharmaceuticals, Inc., priority 2014, dated 2020).

Biological target: recombinant human SAE enzyme (Homo sapiens (Human), UniProt Q9UBT2)
Assay: SAE HTRF enzyme assay
Format: biochemical
Conditions: for Percent Inhibition: SAE inhibition at compound concentration 0.111 μM; for IC50: SAE inhibition, class symbols, legend in nM
Method in brief: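 0.11 nM SAE incubated with 0.5 μM ATP, 0.01 μM Ubc9-GST and 0.125 μM Sumo-Flag in HEPES pH 7.5, MgCl2, GSH, BSA, ±inhibitor, 105 min at 24° C. EDTA stop; Eu-cryptate anti-Flag/XL-APC anti-GST HTRF read after 2 h. Values given as single-concentration % inhibition or IC50.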

Sequence of recombinant human SAE enzyme (Q9UBT2 whole entry): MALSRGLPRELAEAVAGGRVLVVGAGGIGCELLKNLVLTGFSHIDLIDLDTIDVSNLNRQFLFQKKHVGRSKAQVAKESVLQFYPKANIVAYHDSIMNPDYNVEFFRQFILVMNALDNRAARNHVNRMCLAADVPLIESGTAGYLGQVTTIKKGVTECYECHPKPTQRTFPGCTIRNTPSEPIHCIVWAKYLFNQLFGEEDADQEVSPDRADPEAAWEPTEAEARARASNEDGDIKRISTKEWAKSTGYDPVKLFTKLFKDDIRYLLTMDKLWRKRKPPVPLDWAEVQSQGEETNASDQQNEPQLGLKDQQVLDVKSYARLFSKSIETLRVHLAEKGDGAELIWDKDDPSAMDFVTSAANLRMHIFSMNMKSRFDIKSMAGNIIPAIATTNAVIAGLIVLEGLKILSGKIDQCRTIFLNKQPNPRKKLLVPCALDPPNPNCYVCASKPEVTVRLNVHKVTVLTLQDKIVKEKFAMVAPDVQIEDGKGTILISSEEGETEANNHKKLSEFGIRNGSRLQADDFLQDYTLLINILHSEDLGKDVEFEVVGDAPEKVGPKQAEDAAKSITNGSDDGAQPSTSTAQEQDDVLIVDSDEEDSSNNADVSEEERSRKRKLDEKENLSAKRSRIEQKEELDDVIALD
Sequence of recombinant human SAE enzyme (Q9UBE0 whole entry partner): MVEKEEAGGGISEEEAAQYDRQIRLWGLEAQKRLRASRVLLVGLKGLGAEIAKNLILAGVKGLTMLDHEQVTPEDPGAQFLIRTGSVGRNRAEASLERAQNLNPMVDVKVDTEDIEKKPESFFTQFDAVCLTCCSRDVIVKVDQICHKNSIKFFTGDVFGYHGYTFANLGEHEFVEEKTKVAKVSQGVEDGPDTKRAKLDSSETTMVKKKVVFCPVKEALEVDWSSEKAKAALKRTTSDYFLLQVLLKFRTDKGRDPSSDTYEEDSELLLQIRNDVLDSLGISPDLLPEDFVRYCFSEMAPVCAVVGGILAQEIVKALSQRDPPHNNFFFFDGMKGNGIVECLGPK

SMILES	Percent Inhibition	IC50
COc1ccc2c(n1)[C@H](c1cc(C(=O)c3cncnc3N[C@@H]3C[C@H](COS(N)(=O)=O)[C@@H](O)C3)sc1C)OCC2 (single isomer, unassigned) [I-339a, [(1R,2S,4R)-2-hydroxy-4-{[5-({4-[(8S)-2-methoxy-5,8-dihydro-6H-pyrano[3,4-b]pyridin-8-yl]-5-methyl-2-thienyl}carbonyl)pyrimidin-4-yl]amino}cyclopentyl]methyl sulfamate or [(1R,2S,4R)-2-hydroxy-4-{[5-({4-[(8R)-2-methoxy-5,8-dihydro-6H-pyrano[3,4-b]pyridin-8-yl]-5-methyl-2-thienyl}carbonyl)pyrimidin-4-yl]amino}cyclopentyl]methyl sulfamate]	99%	< 10 nM
COc1ccc2c(n1)[C@H](c1cc(C(=O)c3cncnc3N[C@@H]3C[C@H](COS(N)(=O)=O)[C@@H](O)C3)sc1C)OCC2 (single isomer, unassigned) [I-339b, [(1R,2S,4R)-2-hydroxy-4-{[5-({4-[(8S)-2-methoxy-5,8-dihydro-6H-pyrano[3,4-b]pyridin-8-yl]-5-methyl-2-thienyl}carbonyl)pyrimidin-4-yl]amino}cyclopentyl]methyl sulfamate or [(1R,2S,4R)-2-hydroxy-4-{[5-({4-[(8R)-2-methoxy-5,8-dihydro-6H-pyrano[3,4-b]pyridin-8-yl]-5-methyl-2-thienyl}carbonyl)pyrimidin-4-yl]amino}cyclopentyl]methyl sulfamate]	94%	< 10 nM
NS(=O)(=O)OC[C@H]1C[C@@H](Nc2ncncc2C(=O)c2ccc([C@@H]3OCCCc4ccc(Cl)cc43)s2)C[C@@H]1O (single isomer, unassigned) [I-343a, [(1R,2S,4R)-4-{[5-({5-[(1R)-8-chloro-1,3,4,5-tetrahydro-2-benzoxepin-1-yl]-2-thienyl}carbonyl)pyrimidin-4-yl]amino}-2-hydroxycyclopentyl]methyl sulfamate or [(1R,2S,4R)-4-{[5-({5-[(1S)-8-chloro-1,3,4,5-tetrahydro-2-benzoxepin-1-yl]-2-thienyl}carbonyl)pyrimidin-4-yl]amino}-2-hydroxycyclopentyl]methyl sulfamate]	57%	10 to 100 nM
NS(=O)(=O)OC[C@H]1C[C@@H](Nc2ncncc2C(=O)c2ccc([C@@H]3OCCCc4ccc(Cl)cc43)s2)C[C@@H]1O (single isomer, unassigned) [I-343b, [(1R,2S,4R)-4-{[5-({5-[(1R)-8-chloro-1,3,4,5-tetrahydro-2-benzoxepin-1-yl]-2-thienyl}carbonyl)pyrimidin-4-yl]amino}-2-hydroxycyclopentyl]methyl sulfamate or [(1R,2S,4R)-4-{[5-({5-[(1S)-8-chloro-1,3,4,5-tetrahydro-2-benzoxepin-1-yl]-2-thienyl}carbonyl)pyrimidin-4-yl]amino}-2-hydroxycyclopentyl]methyl sulfamate]	84%	10 to 100 nM
NS(=O)(=O)OC[C@H]1C[C@@H](Nc2ncncc2C(=O)c2cc([C@@H]3CCc4ccc(Cl)cc43)cs2)C[C@@H]1O (single isomer, unassigned) [I-349a, [(1R,2S,4R)-4-{[5-({4-[(1R)-6-chloro-2,3-dihydro-1H-inden-1-yl]-2-thienyl}carbonyl)pyrimidin-4-yl]amino}-2-hydroxycyclopentyl]methyl sulfamate or [(1R,2S,4R)-4-{[5-({4-[(1S)-6-chloro-2,3-dihydro-1H-inden-1-yl]-2-thienyl}carbonyl)pyrimidin-4-yl]amino}-2-hydroxycyclopentyl]methyl sulfamate]	42%	100 to 1000 nM
